This passage reports IC50 results from ChEMBL document CHEMBL1145617, “Identification of acridinyl hydrazides as potent aspartic protease inhibitors” (Bioorg Med Chem Lett, 2008).

The target of one assay is Plasmepsin II (Plasmodium falciparum, UniProt P46925). Briefly: Inhibition of Plasmodium falciparum plasmepsin-2 by FRET assay.
Another assay concerns the target Cathepsin D (Homo sapiens, UniProt P07339). Briefly: Inhibition of human cathepsin D by FRET assay.

Sequence of Plasmepsin II (P46925 whole entry): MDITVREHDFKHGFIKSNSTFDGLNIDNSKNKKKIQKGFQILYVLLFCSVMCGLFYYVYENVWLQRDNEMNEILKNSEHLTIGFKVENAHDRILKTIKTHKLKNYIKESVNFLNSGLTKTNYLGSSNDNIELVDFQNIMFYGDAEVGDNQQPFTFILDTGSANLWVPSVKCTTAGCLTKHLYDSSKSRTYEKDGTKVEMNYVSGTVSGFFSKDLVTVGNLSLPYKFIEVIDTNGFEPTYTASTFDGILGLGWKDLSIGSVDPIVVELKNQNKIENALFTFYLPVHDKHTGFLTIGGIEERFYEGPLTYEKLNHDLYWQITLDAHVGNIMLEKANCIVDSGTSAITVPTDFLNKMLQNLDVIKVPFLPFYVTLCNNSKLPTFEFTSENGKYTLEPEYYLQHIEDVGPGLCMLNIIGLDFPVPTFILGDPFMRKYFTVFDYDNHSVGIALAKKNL
Sequence of Cathepsin D (P07339 65-162 limits assumed): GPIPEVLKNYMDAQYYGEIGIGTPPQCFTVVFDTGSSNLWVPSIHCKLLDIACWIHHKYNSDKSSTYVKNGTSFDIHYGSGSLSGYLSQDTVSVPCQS
Sequence of Cathepsin D (P07339 169-412 limits assumed): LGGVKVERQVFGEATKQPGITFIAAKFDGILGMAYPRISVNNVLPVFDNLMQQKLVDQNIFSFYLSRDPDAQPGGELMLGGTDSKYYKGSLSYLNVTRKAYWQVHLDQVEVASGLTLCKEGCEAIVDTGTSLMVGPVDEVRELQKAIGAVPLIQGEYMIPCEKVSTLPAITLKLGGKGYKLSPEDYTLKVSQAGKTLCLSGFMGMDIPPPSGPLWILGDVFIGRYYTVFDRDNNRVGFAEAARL

A word on the IC50: it is the concentration that gives 50% inhibition. A high value points to weaker potency. Take `Cc1ccc2c(NNC(=O)c3ccccc3O)c3ccccc3nc2c1C`: the IC50 amounted to 0.13 nM against Plasmepsin II and 0.5 nM on Cathepsin D.

On to `CC(C)CC(=O)N[C@H](C(=O)N[C@H](C(=O)N[C@@H](CC(C)C)[C@@H](O)CC(=O)N[C@@H](C)C(=O)N[C@@H](CC(C)C)[C@@H](O)CC(=O)O)C(C)C)C(C)C` [PEPSTATIN], for which, at Plasmepsin II, the IC50 was determined as 0.68 nM.

Regarding `Cc1cccc(C(=O)NNc2c3ccccc3nc3c(C)c(C)ccc23)c1`, the results for the IC50 against Plasmepsin II and against Cathepsin D were 4 nM and 9 nM, respectively.
